Test results from patent US8148603B2, “Transgenic ficus, method for producing same and use thereof” (The State of Israel, Ministry of Agriculture & Rural …, priority 2004, dated 2012).

What was measured:
Format in all cases: in vivo
[1] = system: Ficus carica cv. Brown Turkey plants; assay: Herbicide resistance in control and transgenic Brown Turkey tissue culture
Text: The pME504 plasmid which comprises the bar gene [Streptomyces hygroscopicus bar gene conferring resistance to herbicide bialaphos (X05822) Thompson, C. J., Movva, N. R., Tizard, R., Crameri, R., Davies, J. E., Lauwereys, M. and Botterman, J. Characterization of the herbicide-resistance gene bar from Streptomyces hygroscopicus EMBO J. 6, 2519-2523 (1987)] was used to transform ‘Brown Turkey’ plants. Herbicide resistance in control and transgenic Brawn Turkey cv. tissue culture line 001 was evaluated.

[2] = system: Ficus carica shoots; assay: Root formation of regenerated shoots, rooting in liquid medium; conditions: for Root formation (%) ± SE, Rooting in liquid medium: scored after 4 weeks
Method: (§1) Two methods for rooting were examined. According to one method, each shoot was cultivated individually in a tube with root induction (RI) medium composed of half concentration MS medium (½MS) supplemented with 100 mg/l myo-inositol, 1 mg/l thiamine-HCl, 90 mg/l phloroglucinol, 2% sucrose (w/v), 0.25% activated charcoal (AC) and 0.8% agar (pH=5.7). The effect of IBA at different concentrations (0, 1, 2 mg/l) was also tested. Each treatment included 32 individual plants. According to another method, well developed shoots (up to 3-4 cm long with 3-4 expanded leaves) were directly transplanted from the proliferation medium to Rooting Cylinders (3.5 cm high×3.0 cm in diameter) with soil mixture comprising 55% granular polypropylene foam, 30% peat and 15% perlite (Tivonchem Ltd, Israel) moistened/soaked/with liquid RI medium without AC, supplemented with either 0, 1, 2 mg/l IBA. Results were scored (0=shoot with no root; 1=rotting shoot) after 4 weeks and based on 32 shoots (8 Magenta boxes with 4 cylinders) per treatment. Each experiment was repeated three times. Plantlets were cultured in closed boxes for one week in a growth chamber and then transferred for one week to a greenhouse. Then the plantlets were further transferred to a high humidity chamber without closures for additional 2 weeks for further acclimatization by decreasing the relative humidity stepwise.
(§2) Two methods were examined to obtained root induction (Table 1). According to the first approach, each regenerated shoot was placed in a tube containing root induction medium comprising 2 mg/l IBA. Using this method, ca. 80% of the shoots formed roots. However, insufficient percentage of these plants was successfully acclimatized in the greenhouse conditions. According to the second approach, regenerated shoots were cultured directly in rooting cylinders, with or without 1 mg/l IBA. […] These plants had better hardening and growth characteristics and easier further acclimatization in the greenhouse conditions (FIG. 5).

[3] = system: Ficus carica shoots; assay: Root formation of regenerated shoots, rooting in solid medium; conditions: for Root formation (%) ± SE, Rooting in solid medium: scored after 4 weeks
Method: as §1, §2

[4] = system: Ficus carica leaf explants; assay: Adventitious shoot regeneration from leaf explants; conditions: control explants with TDZ only (0.5-5 mg/l); cv. Brown Turkey
Method: Regeneration experiments were carried out initially with the cultivar Brown Turkey. To examine the effect of culture media on adventitious bud formation, the basal media MS, AP [13] and NN [14]; and various combinations of the auxins IBA and NAA (0.25-2 mg/l), NAA with the cytokinins TDZ (0.5-5 mg/l) and BA (2-5 mg/l) were examined. A control treatment with only TDZ (0.5-5 mg/l) was performed. The regeneration media contained MS basal salt mixture, supplemented with 100 mg/l myo-inositol, 1 mg/l thiamine-HCl, 2-4% sucrose (w/v) and 0.8%, agar (Sigma), at pH 5.7. The effect of the addition of 0.25% activated charcoal (AC) was also examined.
The youngest three expanded leaves isolated from 3-4 weeks old plants were used as explants. Each leaf was wounded forming three scares perpendicular to the central vein and placed on regeneration medium with the abaxial or adaxial surface down. Minimum ten Petri dishes, each containing ten explants were used per treatment. The cultures were kept for 7 days in low light intensity (2.5 μmol/m^2 s) followed by exposure to high light intensity (40 μmol/m^2 s) at 25° C., in a 16 hL/8 hD photoperiod. Leaf explants were examined after 28 and 35 days and the percentage of explant producing shoots (regeneration capacity) and the mean of adventitious shoots formed per regenerating explant (regeneration efficacy) were recorded. […]

[5] = system: Ficus carica leaf explants and shoots; assay: Tolerance of non-inoculated leaf explants and of shoots to kanamycin
Method: In order to use kanamycin as a selection agent for transformed cells, non-inoculated leaf explants from in vitro fig cultures of both cultivars Brown Turkey and Smyrna were tested for their tolerance to kanamycin. Wounded leaves were placed on a regeneration medium supplemented with kanamycin at a concentration selected from 0, 10, 25, 50, 75 and 100 mg/l. The minimal concentration for inhibition of adventitious shoot induction for cv. Brown Turkey was 25 mg/l. However with cv. […] Therefore, the concentration of 50 mg/l kanamycin was initially chosen for selection in the subsequent transformation experiments.
Leaf explants of 3-4 weeks old in vitro propagated Ficus carica plants were wounded across the main vein and co-cultivated with the disarmed strain EHA105 harboring the plasmid pME504, comprising the genes GUS-int and npt II. Following co-cultivation with A. tumefaciens, explants were initially placed on regeneration medium supplemented with 50 mg/l kanamycin and 150 mg/l ticarcillin and cultured with their adaxial side up. The leaf explants were exposed for one week to low light intensity and then transferred to normal light. Under the selective conditions of 50 mg/l kanamycin, up to 30% of the explants of Brown Turkey and up to 50% of Smyrna formed green shoots after 4 weeks of culture. […]

Question: For CP(=O)(O)CC[C@H](N)C(=O)O [Basta, phosphinothricin], which “herbicide effect on non-transformed plants” value ([1]; control Brown Turkey cv., increasing concentrations of PPT (FIG. 11)) is on record?
Answer: signs of necrosis and chlorosis on basal leaves following two days and died one week later

Question: What about the “herbicide effect on resistant (bar transgenic) lines” value ([1]; transgenic Brown Turkey cv. tissue culture line 001, 10 ppm Basta) of the same compound?
Answer: propagated in vitro

Question: O=C(O)CCCc1c[nH]c2ccccc12 [IBA, indol-3-butyric acid] was tested. Which “Root formation (%) ± SE, Rooting in liquid medium” value ([2]; IBA 1 mg/l) did it give?
Answer: 47 ± 5.43%

Question: What about the “Root formation (%) ± SE, Rooting in liquid medium” value ([2]; IBA 2 mg/l) of the same compound?
Answer: 81.3 ± 7.61%

Question: And the root formation ([2]; shoots directly in rooting cylinders, with or without 1 mg/l IBA, after 4 weeks)?
Answer: 100%

Question: What about the “Root formation (%) ± SE, Rooting in solid medium” value ([3]; IBA 1 mg/l) of the same compound?
Answer: 100%

Question: What about the “Root formation (%) ± SE, Rooting in solid medium” value ([3]; IBA 2 mg/l) of the same compound?
Answer: 83 ± 6.27%

Question: What about the “shoots that formed roots” value ([3]; each shoot in a tube with root induction medium, 2 mg/l IBA) of the same compound?
Answer: ca. 80%

Question: With O=C(Nc1ccccc1)Nc1cnns1 [TDZ, N-phenyl-N′-1,2,3-thiadiazol-5-yl urea] as the compound, how does the regeneration frequency [4] read?
Answer: ca. 2%

Question: For NC[C@H]1O[C@H](O[C@H]2[C@H](O)[C@@H](O[C@H]3O[C@H](CO)[C@@H](O)[C@H](N)[C@H]3O)[C@H](N)C[C@@H]2N)[C@H](O)[C@@H](O)[C@@H]1O [kanamycin], which “effect on new emerging transgenic shoots” value ([5]; more than 3 subcultures at 100 mg/l kanamycin on proliferation medium) is on record?
Answer: inhibition of their growth and development

Question: And the “minimal concentration for inhibition of adventitious shoot induction” value ([5]; non-inoculated leaf explants, cv. Brown Turkey)?
Answer: 25 mg/L
